Data on nine compounds can be found in patent US12611402B2, “Compounds and their use for the treatment of ALPHA1-antitrypsin deficiency” (CENTESSA PHARMACEUTICALS (UK) LIMITED, priority 2019, dated 2026).

The target of one assay is T1, human M A1AT (Homo sapiens, UniProt P01009).
T1 construct: expressed in transfected cells; host or cells: HEK-M cells (transfected HEK-EBNA)
The assay can be described thus: A1AT cell secretion assay using HEK-M cells (ELISA). It counts as cell-based. Conditions: 10 μM, 48 h. The method, then: (§1) HEK-M cells, a human embryonic kidney cell line stably transfected with M A1AT, were plated into 96 well plates (3.0×10^5 cells/ml with 200 μl of media/well) overnight at 37° C. in a humidified atmosphere containing 5% CO2. Following incubation cells were washed with 200 μl serum-free media three times and media was replaced with serum-free media containing vehicle, 10 μM suberanilohydroxamic acid (SAHA) or a compound of Examples 1-16 in replicates of six for 48 h in a 37° C. incubator in a final volume of 200 μl. At the end of the incubation step the supernatants were removed from the wells, centrifuged at 1000×g at 4° C. for 10 min and were assayed for human A1AT levels by ELISA (Human Serpin A1/α1 antitrypsin duo set ELISA, R& D Systems, DY1268) per manufacturer's instructions.
(§2) Briefly, a 96 well plate was coated with human A1AT capture antibody overnight at room temperature (1:180 dilution from stock, 100 μl final volume/well). The capture antibody was then removed and wells washed three times with 300 μl wash buffer (0.05% Tween 20 in PBS) and then 200 μl reagent diluent ([…]) was incubated in each well for 1 h at room temperature. Diluted samples, standards (125, 250, 500, 1000, 2000, 4000 and 8000 pg/ml A1AT) or blanks were then added to each well in duplicate and the plates were covered with a plate sealer and left at room temperature for 2 h. At the end of the sample incubation step, samples were removed and all wells washed as previously and 100 μl detection antibody (1:180 dilution from stock) was added to each well and incubated for a further 2 h at room temperature. Following incubation with detection antibody, supernatant was removed and wells were washed as previously and 100 μl streptavidin-HRP solution (1:200 dilution from stock) was added to each well for 20 min in the dark. After which, 50 μl stop solution (2M H2SO4) was added and optical density (OD) of each well was read at 450 nm with 570 nm blank subtracted from each well using a microplate reader. A 4 parameter logistic curve was constructed using GraphPad Prism 7 and A1AT concentrations were determined in each sample by interpolation from a standard curve and multiplying by the appropriate dilution factor.
The amount of human M A1AT secreted from transfected HEK-EBNA cells into the media was measured by ELISA. SAHA at 10 μM was used a positive control for all in vitro A1AT secretion experiments.
A general note: An ELISA detects its analyte on a solid surface through an enzyme-linked reagent.

For assay [1], the target named is T2, human Z A1AT (Homo sapiens, UniProt P01009, E366K). Description: Circulating human Z A1AT levels in huZ mouse (plasma ELISA). Also noted: expressed in transfected cells; host or cells: transgenic huZ mouse (line Z11.03, C57Bl/6), expressed in liver, measured in plasma. It counts as in vivo. Conditions: 5, 15 or 50 mg/kg twice a day by oral gavage for 14 days; plasma days 12, 13 and 14 vs basal. An excerpt: The huZ mouse (also referred to as the PiZZ mouse) is a transgenic mouse strain that contains multiple copies of the Z variant of the human A1AT gene, developed by two separate groups (Dycaico et al Science (1988) 242:1409-12) and Carlson et al J. Clin Invest (1989) 83:1183-90). HuZ mice are on a C57Bl/6 background and express the human Z A1AT protein in liver tissue. The mice used in this study are from the progeny of Carlson and colleagues (transgenic line Z11.03). […]
T2 sequence (P01009 25-418 E366K): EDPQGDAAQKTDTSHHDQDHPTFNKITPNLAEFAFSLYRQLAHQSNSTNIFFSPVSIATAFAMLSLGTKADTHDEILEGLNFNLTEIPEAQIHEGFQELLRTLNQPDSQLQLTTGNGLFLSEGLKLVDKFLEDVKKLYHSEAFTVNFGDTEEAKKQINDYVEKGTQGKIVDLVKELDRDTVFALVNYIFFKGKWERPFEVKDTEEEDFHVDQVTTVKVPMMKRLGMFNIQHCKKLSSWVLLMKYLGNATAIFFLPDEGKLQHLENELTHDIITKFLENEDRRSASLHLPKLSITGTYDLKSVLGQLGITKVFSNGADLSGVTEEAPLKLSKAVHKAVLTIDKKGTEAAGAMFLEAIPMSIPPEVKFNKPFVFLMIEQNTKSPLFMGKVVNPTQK
HuZ mice (n=4/group; male or female) with basal human Z A1AT plasma levels of between 200-600 μg/ml were treated with either vehicle or the compounds of Examples 1 or 17 at 5, 15 or 50 mg/kg twice a day by oral gavage for 14 consecutive days. […] Human Z A1AT levels in mouse plasma samples were measured by ELISA (Human Serpin A1/α1 antitrypsin duo set ELISA, R& D Systems, DY1268) per manufacturer's instructions.
Briefly, a 96 well plate was coated with human A1AT capture antibody overnight at room temperature (1:180 dilution from stock, 100 μl final volume/well). […] After which, 50 μl stop solution (2M H2SO4) was added and optical density (OD) of each well was read at 450 nm with 570 nm blank subtracted from each well using a microplate reader. […]

For another assay, the target named is T3, human Siiyama A1AT (Homo sapiens, UniProt P01009, S77F).
T3 construct: expressed in transfected cells; host or cells: HEK-Siiyama cells (transfected HEK-EBNA)
T3 sequence (P01009 25-418 S77F): as the sequence (P01009 25-418 E366K) above, with S53F, K342E counted along it
Description: A1AT cell secretion assay using HEK-Siiyama cells (ELISA). It counts as cell-based. Conditions: 48 h; for secretion of Siiyama A1AT from HEK-Siiyama cells: 1 or 10 μM. The method, then:
as §1, with “HEK-Siiyama” for “HEK-M”, “the human Siiyama A1AT gene,” for “M A1AT,”, “Example 1 (at 1 and 10 μM)” for “Examples 1-16”, “eight” for “six”, “A1/α1-antitrypsin” for “A1/α1 antitrypsin”
as §2, with “At the end of the sample incubation step, samples were removed and all wells washed as previously and 100 μl detection antibody (1:180 dilution from stock) was added to each well and incubated for a further 2 h at room temperature. Following incubation with detection antibody, supernatant was removed and wells were washed as previously and 100 μl streptavidin-HRP solution (1:200 dilution from stock) was added to each well for 20 min in the dark.” left out
The amount of human Siiyama A1AT secreted from transfected HEK-EBNA cells into the media was measured by ELISA. […]

The target in assay [2] is T2, human Z A1AT. Description: A1AT cell secretion assay using HEK-Z cells (ELISA). Also noted: expressed in transfected cells; host or cells: HEK-Z cells (transfected HEK-EBNA). It counts as cell-based. Conditions: 48 h, supernatant ELISA. The method, then: HEK-Z cells, a human embryonic kidney cell line stably transfected with the human Z A1AT gene, were plated into 96 well plates (3.0×10^5 cells/ml with 200 μl of media/well) overnight at 37° C. in a humidified atmosphere containing 5% CO2. Following incubation cells were washed with 200 μl serum-free media three times and media was replaced with treatments in quadruplicate using serum-free media containing vehicle, 10 μM suberanilohydroxamic acid (SAHA) or the compounds of Examples 1-18 (at concentrations of 10, 33, 100 and 333 nM) for 48 h in a 37° C. incubator in a final volume of 200 μl. At the end of the incubation step the supernatants were removed from the wells, centrifuged at 1000×g at 4° C. for 10 min and were assayed for human A1AT levels by ELISA (Human Serpin A1/α1-antitrypsin duo set ELISA, R& D Systems, DY1268) per manufacturer's instructions.
as §2, with “At the end of the sample incubation step, samples were removed and all wells washed as previously and 100 μl detection antibody (1:180 dilution from stock) was added to each well and incubated for a further 2 h at room temperature. Following incubation with detection antibody, supernatant was removed and wells were washed as previously and 100 μl streptavidin-HRP solution (1:200 dilution from stock) was added to each well for 20 min in the dark.” left out
The amount of human A1AT secreted from transfected HEK-EBNA cells into the media was measured by ELISA. […]

T1 sequence (P01009 25-418): as the sequence (P01009 25-418 E366K) above, with K342E counted along it

In the case of `O=C(O)C1CCN(S(=O)(=O)c2cccc3cccnc23)CC1` [Example 1, 1-(Quinolin-8-ylsulfonyl)piperidine-4-carboxylic acid], the “secretion of human M A1AT from HEK-M cells” value (“secretion of human M A1AT” below) at human M A1AT was “did not lead to an increase”. In addition, on human Z A1AT [1], the “secretion of human Z A1AT compared to baseline levels in huZ mice” value is recorded as “stimulated secretion”. In addition, the “secretion of Siiyama A1AT from HEK-Siiyama cells” value at human Siiyama A1AT was “did not stimulate secretion”.
Take `O=C(O)C1CCN(S(=O)(=O)c2cccc(Cl)c2)CC1` [Example 3, 1-((3-Chlorophenyl)sulfonyl)piperidine-4-carboxylic acid]: on human M A1AT, the “secretion of human M A1AT” value is “did not lead to an increase”.
The same measure, in the same setting: the same measure for `O=C(O)C1CCN(S(=O)(=O)c2cccc(Cl)c2Cl)CC1` [Example 4, 1-((2,3-Dichlorophenyl)sulfonyl)piperidine-4-carboxylic acid]: “did not lead to an increase”.
Still for that read-out and setting: the same measure for `O=C(O)C1CCN(S(=O)(=O)c2ccccc2C(F)(F)F)CC1` [Example 10, 1-((2-(Trifluoromethyl)phenyl)sulfonyl)piperidine-4-carboxylic acid]: “did not lead to an increase”.
Take `O=C(O)C1CCN(S(=O)(=O)c2ccc(C(F)(F)F)cc2)CC1` [Example 12, 1-((4-(Trifluoromethyl)phenyl)sulfonyl)piperidine-4-carboxylic add]: at human Z A1AT [2], the “Median A1AT increase over vehicle at 300 nM” value turned out to be 200.
Same read-out and setting: the same measure for `O=C(O)[C@H]1CCN(S(=O)(=O)c2ccccc2C(F)(F)F)C1` [Example 15, (S)-1-((2-(Trinfluoromethyl)phenyl)sulfonyl)pyrrolidine-3-carboxylic acid]: 230.
For `O=C(O)[C@H]1CCCN(S(=O)(=O)c2ccccc2C(F)(F)F)C1` [Example 17, (S)-1-((2-(Trinfluoromethyl)phenyl)sulfonyl)piperidine-3-carboxylic acid], the “Median A1AT increase over vehicle at 300 nM” value on human Z A1AT [2] is listed as 310. Moreover, the “secretion of human M A1AT” value at human M A1AT is reported as “did not lead to an increase”. Further, at human Z A1AT [1], the “secretion of human Z A1AT compared to baseline levels in huZ mice” value is given as “stimulated secretion”. Further, the “secretion of Siiyama A1AT from HEK-Siiyama cells” value on human Siiyama A1AT is given as “did not stimulate secretion”.
For the compound `O=C(O)[C@@H]1CCCN(S(=O)(=O)c2ccccc2C(F)(F)F)C1` [Example 18, (R)-1-((2-(Trifluoromethyl)phenyl)sulfonyl)piperidine-3-carboxylic acid], on human M A1AT, the “secretion of human M A1AT” value is “did not lead to an increase”.
Regarding `O=C(CCCCCCC(=O)Nc1ccccc1)NO` [SAHA, suberanilohydroxamic acid, reference compound], on human Siiyama A1AT (10 μM), the “Siiyama A1AT secretion from HEK-Siiyama cells (positive control)” value is listed as “stimulated an increase”.
